The structures appear in SMILES notation.

The test system of this assay is Human immunodeficiency virus. The experiment in a line: Antiviral activity against HIV assessed as reduction in virus-induced cytopathic effect by XTT assay. It counts as functional, organism-based. Conditions: Human immunodeficiency virus 1, read-out: pEC50 (converted).
With `Cc1cc(C)nc(N2C(=O)CSC2c2c(F)cccc2F)c1` (configuration not stated), the EC50 was 0.0589 µM.

As for `O=C1CSC(c2c(F)cccc2Cl)N1c1cccc(Br)n1` (configuration not stated), the EC50 is 0.0639 µM. As for `Cc1cccc(N2C(=O)CSC2c2c(F)cccc2F)n1` (configuration not stated), the EC50 was 0.0819 µM. For `O=C1CSC(c2c(F)cccc2F)N1c1cccnc1` (configuration not stated), the EC50 was 0.0105 µM. For `O=C1CSC(c2c(F)cccc2F)N1c1cccc(Br)n1` (configuration not stated) the value was 0.0299 µM; for `Cc1cc(C)nc(N2C(=O)CSC2c2c(Cl)cccc2Cl)c1` (configuration not stated), 0.0898 µM; for `Cc1cc(O)nc(N2C(=O)CSC2c2c(Cl)cccc2Cl)n1` (configuration not stated), 0.0304 µM. For `COc1cc(C)nc(N2C(=O)CSC2c2c(Cl)cccc2Cl)n1` (configuration not stated) the value was 0.0239 µM; for `COc1cc(C)nc(N2C(=O)CSC2c2c(F)cccc2Cl)n1` (configuration not stated), 0.0559 µM. For `Cc1cc(C)nc(N2C(=O)CSC2c2c(F)cccc2Cl)n1` (configuration not stated) the value was 0.0379 µM. Regarding `Cc1cc(C)nc(N2C(=O)CSC2c2c(Cl)cccc2Cl)n1` (configuration not stated), the EC50 was 0.017 µM. Turning to `Cc1cccc(N2C(=O)CSC2c2c(Cl)cccc2Cl)n1` (configuration not stated), the EC50 was 0.0439 µM.

For the compound `CC1CC(C)C1N1C(=O)CSC1c1c(F)cccc1Cl` (configuration not stated), the EC50 was 0.0857 µM. For `COc1cccc(OC)c1C1SCC(=O)N1c1cc(Br)ccn1` (configuration not stated) the value was 0.0449 µM; for `COc1cccc(OC)c1C1SCC(=O)N1c1cc(C)ccn1` (configuration not stated), 0.0499 µM. For the compound `CC1CCC1N1C(=O)CSC1c1c(Cl)cccc1Cl` (configuration not stated), the EC50 was 0.0798 µM.

Regarding `Cc1cccnc1N1C(=O)CSC1c1c(F)cccc1F` (configuration not stated), the EC50 was 0.0187 µM. For `COc1cccc(F)c1C1SCC(=O)N1c1cc(Br)ccn1` (configuration not stated), the EC50 was 0.0339 µM. For `Cc1cccc(N2C(=S)CSC2c2c(Cl)cccc2Cl)n1` (configuration not stated), the EC50 was 0.0869 µM. As to `Cc1cc(Cl)nc(N2C(=O)CSC2c2c(Cl)cccc2Cl)n1` (configuration not stated), the EC50 was 0.0193 µM. For `COC1CCC1N1C(=O)CSC1c1c(F)cccc1F` (configuration not stated) the value was 0.0846 µM. For `Cc1ccnc(N2C(=O)CSC2c2c(Cl)cccc2Cl)n1` (configuration not stated), the EC50 was 0.0439 µM.

These data come from ChEMBL document CHEMBL1137694, “Predicting anti-HIV activity of 1,3,4-thiazolidinone derivatives: 3D-QSAR approach” (Eur J Med Chem, 2009).
